Reference: patent publication US4554100A, “Alkylamides of carboxyalkanoyl peptides and method for preparation thereof” (Spofa, Spojene podniky pro zdravotnickou vyrobu, priority 1981, dated 1985)
Like-named read-outs stand apart in the source and are kept apart here. Starred links: 1 amine or outer side, 2 acyl side, 3 side chain; linkers in the order of their positions; H or OH if unused. Residues, ends and D or L forms follow the SMILES beside them. *: point of attachment. Glutaryl = O=C(CCCC(=O)[*:2])[*:1]; NHPhenethyl = c1ccc(CCN*)cc1; Suc = O=C(CCC(=O)[*:2])[*:1]; NHPr = CCCN*

What was measured:
[1] = target: swine's pancreatic elastase (E3) (Sus scrofa, UniProt P00772); assay: Inhibition constants (Ki) with pancreatic elastase and chromogenic p-nitroanilide substrates; format: biochemical
Sequence of swine's pancreatic elastase (E3) (P00772 27-266): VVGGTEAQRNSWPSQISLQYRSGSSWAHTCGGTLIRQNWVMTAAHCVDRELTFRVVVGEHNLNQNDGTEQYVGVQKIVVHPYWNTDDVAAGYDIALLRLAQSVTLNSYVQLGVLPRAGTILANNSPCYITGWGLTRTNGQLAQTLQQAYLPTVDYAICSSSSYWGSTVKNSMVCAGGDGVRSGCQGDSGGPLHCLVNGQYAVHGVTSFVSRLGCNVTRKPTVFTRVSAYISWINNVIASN
Excerpt: (§1) The earlier work also led to the surprising discovery that the carboxy group in the N-terminal part of the inhibitor as compared with the hydrophobic residue, such as an acetyl, substantially enhances inhibition capacity in the same manner as it enhances the constants of elastolytic hydrolysis of substrates of this type. It is further known that the properties of an elastolytic inhibitor are dependent upon the length of the peptide chain as well as at the substrate (eur. J. Biochem. 69, 1, 1976), higher inhibition capacity being present with a tripeptide than with a dipeptide. Experiments with vitro inhibition constants (Ki) for the alkylamides of 3-carboxypropionyl and 4-carboxybutyryl di and tripeptides were determined using pancreatic elastase and chromogenic substrates of p-nitroanilides of succinyl or glutaryl tetraalanines, the results of which are set forth in Table 1, below. Inhibition constant of the inhibitors described herein were also determined using human elastase, that is, human duodenal elastase after stimulation with cholecystokinine (E1) or lyophilized human pancreated fluid obtained by cannulation of the pancreatic duct outlet (E2), and they were then compared with swine's pancreatic elastase (E3), the results of which are set forth in Table 2, below.

[2] = target: lyophilized human pancreated fluid obtained by cannulation of the pancreatic duct outlet (E2); assay: Inhibition constants (Ki) with human pancreatic fluid elastase and chromogenic substrates; format: biochemical
Excerpt: as §1

[3] = target: human duodenal elastase after stimulation with cholecystokinine (E1); assay: Inhibition constants (Ki) with human duodenal elastase and chromogenic substrates; format: biochemical
Excerpt: as §1

[4] = Experimental pancreatitis in rats induced by sodium desoxycholate, serum amylase; format: in vivo; conditions: simultaneous application of 20 mg intraperitoneally
[5] = Table 1, pancreatic elastase, substrate Glt-(Ala)4-NAn, read-out: Ki, substrate Glt-(Ala)4-NAn
[6] = Table 1, pancreatic elastase, substrate Suc-(Ala)4-NAn, read-out: Ki, substrate Suc-(Ala)4-NAn
[7] = Table 2, substrate Glt-(Ala)4-NAn, read-out: Ki, Glt-(Ala)4-NAn, E2
[8] = Table 2, substrate Suc-(Ala)4-NAn, read-out: Ki, Suc-(Ala)4-NAn, E2
[9] = Table 2, substrate Glt-(Ala)4-NAn, read-out: Ki, Glt-(Ala)4-NAn, E1
[10] = Table 2, substrate Suc-(Ala)4-NAn, read-out: Ki, Suc-(Ala)4-NAn, E1

| Compound | Ki [1, 5] [µM] | Ki [1, 6] [µM] | Ki [2, 7] [µM] | Ki [2, 8] [µM] | Ki [3, 9] [µM] | Ki [3, 10] [µM] | Ki ([1]; Table 2, swine's pancreatic elastase (E3), substrate Glt-(Ala)4-NAn, read-out: Ki, Glt-(Ala)4-NAn, E3) [µM] | Ki ([1]; Table 2, swine's pancreatic elastase (E3), substrate Suc-(Ala)4-NAn, read-out: Ki, Suc-(Ala)4-NAn, E3) [µM] | level of serum amylase [4] |
| --- | --- | --- | --- | --- | --- | --- | --- | --- | --- |
| CCNC(=O)[C@@H]1CCCN1C(=O)[C@H](C)NC(=O)[C@H](C)NC(=O)CCC(=O)O [Suc--Ala--Ala--Pro--NH--Et, 3-Carboxypropionylalanyl-alanyl Proline Ethylamide] (Suc-Ala-Ala-Pro-NHEt) | 4.7 | 2.5 | 17 | 23 | 19 | 14 |  |  |  |
| CCNC(=O)[C@H](C)NC(=O)[C@H](C)NC(=O)CCC(=O)O [Suc--(ala)2 --NH--Et] (Suc-Ala-Ala-NHEt) | 166 | 95.2 |  |  |  |  |  |  |  |
| CCNC(=O)[C@H](C)NC(=O)[C@H](C)NC(=O)[C@H](C)NC(C)=O [Ac--(Ala)3 --NH--Et, reference compound] | 46 | 28 | 117 | 69 | 123 | 238 |  |  |  |
| CCNC(=O)[C@@H]1CCCN1C(=O)[C@H](C)NC(=O)[C@H](C)NC(=O)CCCC(=O)O [Glt--Ala--Ala--Pro--NH--Et, 4-Carboxybutyrylalanyl-alanyl Proline Ethylamide] (Glutaryl-Ala-Ala-Pro-NHEt) | 2.7 | 1.6 | 13.8 | 2.9 | 12 | 10 |  |  | lower level of serum amylase |
| C[C@H](NC(=O)CCC(=O)O)C(=O)N[C@@H](C)C(=O)NCCc1ccccc1 [Suc--(Ala)2 --NH--EtPh, 3-Carboxypropionylalanyl Alanine Phenylethylamide] (Suc-Ala-Ala-NHPhenethyl) | 666 | 1460 |  |  |  |  |  |  |  |
| CCNC(=O)[C@H](C)NC(=O)[C@H](C)NC(=O)[C@H](C)NC(=O)C=CC(=O)O [Mal--(Ala)3 --NH--Et, 3-Carboxyacryolylalanyl-alanyl Alanine Ethylamide] | 30 | 35 | 117 | 69 | 73 | 87 | 30 |  |  |
| CC(C)CNC(=O)[C@H](C)NC(=O)[C@H](C)NC(=O)[C@H](C)NC(=O)CCC(=O)O [Suc--(Ala)3 --NH--iBu, 3-Carboxypropionylalanyl-alanyl Alanine Isobutylamide] | 1470 | 816 |  |  |  |  |  |  |  |
| CC(C)CNC(=O)[C@@H]1CCCN1C(=O)[C@H](C)NC(=O)CCC(=O)O [Suc--Ala--Pro--NH--iBu] | 5750 | 2040 |  |  |  |  |  |  |  |
| CCCNC(=O)[C@@H]1CCCN1C(=O)[C@H](C)NC(=O)[C@H](C)NC(=O)CCCC(=O)O [Glt-Ala-Ala-Pro-Nh-Pr, 4-Carboxybutyrylalanyl-alanyl Proline Propylamide] (Glutaryl-Ala-Ala-Pro-NHPr) |  |  |  |  |  |  |  |  | lower level of serum amylase |
| CCNC(=O)[C@@H]1CCCN1C(=O)[C@H](C)NC(=O)CCC(=O)O [Suc--Ala--Pro--NH--Et, 3-Carboxypropionylalanyl Proline Ethylamide] (Suc-Ala-Pro-NHEt) | 80 | 111 |  |  |  |  |  |  |  |

Continued, in another order:

| Ki [1, 5] [µM] | Ki [1, 6] [µM] | Ki [2, 7] [µM] | Ki [2, 8] [µM] | Ki [3, 9] [µM] | Ki [3, 10] [µM] | Ki ([1]; Table 2, swine's pancreatic elastase (E3), substrate Glt-(Ala)4-NAn, read-out: Ki, Glt-(Ala)4-NAn, E3) [µM] | Ki ([1]; Table 2, swine's pancreatic elastase (E3), substrate Suc-(Ala)4-NAn, read-out: Ki, Suc-(Ala)4-NAn, E3) [µM] | Compound | level of serum amylase [4] |
| --- | --- | --- | --- | --- | --- | --- | --- | --- | --- |
| 680 | 510 |  |  |  |  |  |  | CNC(=O)[C@H](C)NC(=O)[C@H](C)NC(=O)[C@H](C)NC(=O)CCC(=O)O [Suc--(Ala)3 --NH--Me] |  |
| 2.5 | 2.5 | 4.5 | 3.8 | 7.2 | 11 |  |  | CCCNC(=O)[C@H](C)NC(=O)[C@H](C)NC(=O)[C@H](C)NC(=O)CCCC(=O)O [Glt--(Ala)3 --NH--Pr, 4-Carboxybutyrylalanyl-alanyl Alanine Propylamide] |  |
| 794 | 668 |  |  |  |  |  |  | CC(C)CNC(=O)[C@H](C)NC(=O)[C@H](C)NC(=O)[C@H](C)NC(=O)CCCC(=O)O [Glt--(Ala)3 --NH--iBu, 4-Carboxybutyrylalanyl-alanyl Alanine Isobutylamide] |  |
| 109 | 68.1 |  |  |  |  |  |  | CCNC(=O)[C@H](C)NC(=O)[C@H](C)NC(=O)CCCC(=O)O [Glt--(Ala)2 --NH--Et] (Glutaryl-Ala-Ala-NHEt) |  |
| 4.5 | 6.8 | 14 | 13 | 21 | 12 |  |  | CCCNC(=O)[C@H](C)NC(=O)[C@H](C)NC(=O)[C@H](C)NC(=O)CCC(=O)O [Suc--(Ala)3 --NH--Pr, 3-Carboxypropionylalanyl-alanyl Alanine Propylamide] |  |
| 320 | 280 |  |  |  |  |  |  | CNC(=O)[C@H](C)NC(=O)[C@H](C)NC(=O)[C@H](C)NC(=O)CCCC(=O)O [Glt--(Ala)3 --NH--Me] |  |
| 29 | 20 | 47 | 29 | 89 | 76 |  | 20 | CCNC(=O)[C@H](C)NC(=O)[C@H](C)NC(=O)[C@H](C)NC(=O)CCC(=O)O [Suc--(Ala)3 --NH--Et, 3-Carboxypropionylalanyl-alanyl Alanine Ethylamide] |  |
| 8.4 | 8.8 | 19 | 7.4 | 19 | 15 |  |  | CCNC(=O)[C@H](C)NC(=O)[C@H](C)NC(=O)[C@H](C)NC(=O)CCCC(=O)O [Glt--(Ala)3 --NH--Et, 4-Carboxybutyrylalanyl-alanyl Alanine Ethylamide] | lower level of serum amylase |
